# Measured values reported in US10123993B2, “Cyclic ureas as inhibitors of rock” (BRISTOL-MYERS SQUIBB COMPANY, priority 2015, dated 2018).
# Where a name gives a salt, the structure may show the parent alone.
# Target: ROCK2 (Homo sapiens, UniProt O75116)
# Test: ROCK2 kinase inhibition assay (Caliper LABCHIP, FITC peptide substrate)
# Type: biochemical
# Settings: 5 μM ATP, 1.5 μM peptide substrate; value ranges
# Outline: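 Rho kinase with 5 μM ATP and 1.5 μM FITC-AHA-AKRRRLSSLRA-OH peptide in HEPES pH 7.5, 20 mM MgCl2, 0.015% Brij-35, 4 mM DTT, DMSO <2%. EDTA stop; phospho and non-phospho peptide separated on LabChip. IC50 from dose-response fit.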
# Sequence of ROCK2 (O75116 whole entry, species assumed): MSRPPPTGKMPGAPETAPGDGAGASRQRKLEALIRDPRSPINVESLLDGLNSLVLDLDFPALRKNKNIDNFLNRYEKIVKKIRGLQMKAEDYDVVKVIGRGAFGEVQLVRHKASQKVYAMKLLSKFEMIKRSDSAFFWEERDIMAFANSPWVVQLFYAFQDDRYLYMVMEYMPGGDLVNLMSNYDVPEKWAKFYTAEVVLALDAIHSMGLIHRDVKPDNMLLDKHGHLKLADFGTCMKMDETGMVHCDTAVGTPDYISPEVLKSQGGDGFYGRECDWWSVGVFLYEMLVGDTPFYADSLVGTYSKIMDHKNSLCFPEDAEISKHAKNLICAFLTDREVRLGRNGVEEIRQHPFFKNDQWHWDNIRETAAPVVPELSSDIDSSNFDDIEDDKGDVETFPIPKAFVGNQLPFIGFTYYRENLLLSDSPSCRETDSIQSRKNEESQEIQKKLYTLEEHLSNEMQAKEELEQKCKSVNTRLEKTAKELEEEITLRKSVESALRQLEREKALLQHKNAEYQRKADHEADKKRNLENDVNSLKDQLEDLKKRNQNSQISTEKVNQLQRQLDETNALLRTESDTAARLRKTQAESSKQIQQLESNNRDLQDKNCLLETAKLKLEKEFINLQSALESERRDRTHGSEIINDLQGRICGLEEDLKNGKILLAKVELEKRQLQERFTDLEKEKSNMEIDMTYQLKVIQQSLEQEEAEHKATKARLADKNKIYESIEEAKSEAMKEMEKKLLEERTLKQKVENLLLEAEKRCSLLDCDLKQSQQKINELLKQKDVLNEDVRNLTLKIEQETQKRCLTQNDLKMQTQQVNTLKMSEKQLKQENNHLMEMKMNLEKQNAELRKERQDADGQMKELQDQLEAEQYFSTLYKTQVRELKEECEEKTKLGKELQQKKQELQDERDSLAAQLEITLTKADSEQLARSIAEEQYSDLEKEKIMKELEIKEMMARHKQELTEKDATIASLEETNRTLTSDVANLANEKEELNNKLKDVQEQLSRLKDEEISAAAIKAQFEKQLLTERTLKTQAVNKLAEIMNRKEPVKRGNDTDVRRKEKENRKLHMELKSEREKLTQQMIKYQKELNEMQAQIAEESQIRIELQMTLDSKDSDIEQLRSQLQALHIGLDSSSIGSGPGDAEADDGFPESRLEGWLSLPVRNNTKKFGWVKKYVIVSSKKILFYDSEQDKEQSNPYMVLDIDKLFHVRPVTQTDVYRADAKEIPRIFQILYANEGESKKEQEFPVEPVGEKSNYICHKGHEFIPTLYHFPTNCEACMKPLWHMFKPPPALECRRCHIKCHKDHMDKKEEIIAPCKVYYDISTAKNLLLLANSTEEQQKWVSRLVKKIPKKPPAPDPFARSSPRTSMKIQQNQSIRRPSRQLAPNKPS
row,SMILES,IC50
1,"COc1cccc(CN2CCN(c3ccc(-c4ccncc4F)cc3)C2=O)c1 [Example 50, 1-(4-(3-fluoropyridin-4-yl)phenyl)-3-(3-methoxybenzyl)imidazolidin-2-one]",20.1 to 200 nM
2,"COc1cccc([C@@H](C)N2CCN(c3ccc(-c4cn[nH]c4)c(OC)c3)C2=O)c1 [Example 13, (R)-1-(3-Methoxy-4-(1H-pyrazol-4-yl)phenyl)-3-(1-(3-methoxyphenyl)ethyl)imidazolidin-2-one]",< 2 nM
3,"COc1cc(N2CCN(Cc3cccc(F)c3)C2=O)ccc1-c1ccncc1 [Example 59, 1-(3-fluorobenzyl)-3-(3-methoxy-4-(pyridin-4-yl)phenyl)imidazolidin-2-one, TFA]",20.1 to 200 nM
4,"COc1cccc(CN2CCN(c3ccc(-c4cn[nH]c4)c(OC)c3)C2=O)c1 [Example 7, 1-(3-Methoxy-4-(1H-pyrazol-4-yl)phenyl)-3-(3-methoxybenzyl)imidazolidin-2-one]",2.1 to 20 nM
5,"O=c1n(Cc2c(F)cccc2F)ccn1-c1ccc(-c2cn[nH]c2)cc1 [Example 68, 1-(4-(1H-pyrazol-4-yl)phenyl)-3-(2,6-difluorobenzyl)-1H-imidazol-2(3H)-one]",20.1 to 200 nM
6,"COc1cccc(C(CC(=O)O)N2CCN(c3ccc(-c4cn[nH]c4)c(OC)c3)C2=O)c1 (centres unmarked) [Example 19, 3-(3-(3-Methoxy-4-(1H-pyrazol-4-yl)phenyl)-2-oxoimidazolidin-1-yl)-3-(3-methoxyphenyl)propanoic Acid, TFA]",20.1 to 200 nM
7,"COc1cccc(CN2CC(=O)N(c3ccc(-c4cn[nH]c4)c(OC)c3)C2=O)c1 [Example 93, 3-(3-methoxy-4-(1H-pyrazol-4-yl)phenyl)-1-(3-methoxybenzyl)imidazolidine-2,4-dione, TFA]",20.1 to 200 nM
8,"O=C(O)C1CN(c2ccc(-c3cn[nH]c3)cc2)C(=O)N1Cc1cccc(F)c1 (centres unmarked) [Example 32, 1-(4-(1H-Pyrazol-4-yl)phenyl)-3-(3-fluorobenzyl)-2-oxoimidazolidine-4-carboxylic Acid]",200 to 2000 nM
9,"CC1(C)CN(c2ccc(-c3cn[nH]c3)cc2)C(=O)N1Cc1cccc(OC(F)F)c1 [Example 142, 1-(4-(1H-pyrazol-4-yl)phenyl)-3-(3-(difluoro-methoxy)-benzyl)-4,4-dimethyl-imidazolidin-2-one]",20.1 to 200 nM
10,"COc1cc(N2CC(=O)N(Cc3ccccc3)C2=O)ccc1-c1cn[nH]c1 [Example 98, 3-Benzyl-1-(3-methoxy-4-(1H-pyrazol-4-yl)phenyl)imidazolidine-2,4-dione]",20.1 to 200 nM
11,"CCc1cc(N2CCN(Cc3ccccc3F)C2=O)ccc1-c1cn[nH]c1 [Example 25, 1-(3-Ethyl-4-(1H-pyrazol-4-yl)phenyl)-3-(2-fluorobenzyl)imidazolidin-2-one]",20.1 to 200 nM
12,"COc1cc(-c2cn[nH]c2)ccc1N1CCN(CCc2ccccc2F)C1=O [Example 11, 1-(2-Fluorophenethyl)-3-(2-methoxy-4-(1H-pyrazol-4-yl)phenyl)imidazolidin-2-one]",20.1 to 200 nM
13,"COc1cccc(CN2C(=O)N(c3ccc(-c4cn[nH]c4)cc3)CC2C(C)(C)O)c1 (single isomer, unassigned) [Example 123, 1-(4-(1H-Pyrazol-4-yl)phenyl)-4-(2-hydroxypropan-2-yl)-3-(3-methoxybenzyl)imidazolidin-2-one]",< 2 nM
14,"COCC(c1cccc(OC)c1)N1CCN(c2ccc(-c3cn[nH]c3)cc2)C1=O (single isomer, unassigned) [Example 157, 1-(4-(1H-Pyrazol-4-yl)phenyl)-3-(2-methoxy-1-(3-methoxyphenyl)ethyl)imidazolidin-2-one]",200 to 2000 nM
15,"COc1cc(F)cc(CN2C(=O)CN(c3ccc(-c4cn[nH]c4)cc3)C2=O)c1 [Example 107, 1-(4-(1H-pyrazol-4-yl)phenyl)-3-(3-fluoro-5-methoxy-benzyl)imidazolidine-2,4-dione]",2.1 to 20 nM
16,"COc1ccc(F)c(CN2CCN(c3ccc(-c4ccncc4)c(OC)c3)C2=O)c1 [Example 58, 1-(2-fluoro-5-methoxybenzyl)-3-(3-methoxy-4-(pyridin-4-yl)phenyl)imidazolidin-2-one, TFA]",200 to 2000 nM
17,"COc1cc(N2CCN(Cc3ccccc3)C2=O)ccc1-c1cn[nH]c1 [Example 18, 1-Benzyl-3-(3-methoxy-4-(1H-pyrazol-4-yl)phenyl)imidazolidin-2-one]",20.1 to 200 nM
18,"O=C1CN(c2ccc(-c3cn[nH]c3)cc2)C(=O)N1Cc1cc(F)ccc1F [Example 115, 1-(4-(1H-pyrazol-4-yl)phenyl)-3-(2,5-difluorobenzyl) imidazolidine-2,4-dione]",20.1 to 200 nM

# Second part, the compound after the results:
row,IC50,SMILES
1,20.1 to 200 nM,"COc1cccc(CN2CCN(c3ccc(-c4cn[nH]c4)c(C(F)(F)F)c3)C2=O)c1 [Example 275, 1-(4-(1H-pyrazol-4-yl)-3-(trifluoromethyl)phenyl)-3-(3-methoxybenzyl)imidazolidin-2-one]"
2,2.1 to 20 nM,"COc1nc(N2CCN(CC3CCCCC3)C2=O)ccc1-c1cn[nH]c1 [Example 227, 1-(cyclohexylmethyl)-3-(6-methoxy-5-(1H-pyrazol-4-yl)pyridin-2-yl)imidazolidin-2-one]"
3,20.1 to 200 nM,"COc1cccc(C(C(N)=O)N2CCN(c3ccc(-c4cn[nH]c4)cc3)C2=O)c1 (single isomer, unassigned) [Example 295, 2-(3-(4-(1H-pyrazol-4-yl)phenyl)-2-oxoimidazolidin-1-yl)-2-(3-methoxyphenyl)acetamide]"
4,200 to 2000 nM,"CCc1cc(N2CCN(Cc3cccc(OC)c3)C2=O)ncc1-c1cn[nH]c1 [Example 190, 1-(4-ethyl-5-(1H-pyrazol-4-yl)pyridin-2-yl)-3-(3-methoxy-benzyl) imidazolidin-2-one]"
5,20.1 to 200 nM,"COc1cc(F)cc(C(C)n2ccn(-c3ccc(-c4cn[nH]c4)cc3)c2=O)c1 (single isomer, unassigned) [Example 367, 1-(4-(1H-pyrazol-4-yl)phenyl)-3-(1-(3-fluoro-5-methoxyphenyl)ethyl)-1H-imidazol-2(3H)-one]"
6,2.1 to 20 nM,"COc1cccc(CN2C(=O)N(c3ccc(-c4cn[nH]c4)cn3)C[C@H]2CO)c1 [Example 314, (S)-1-(5-(1H-pyrazol-4-yl)pyridin-2-yl)-4-(hydroxymethyl)-3-(3-methoxybenzyl)imidazolidin-2-one]"
7,200 to 2000 nM,"N#Cc1cccc(CN2CCN(c3ccc(-c4cn[nH]c4)cn3)C2=O)c1 [Example 235, 3-((3-(5-(1H-pyrazol-4-yl)pyridin-2-yl)-2-oxoimidazolidin-1-yl)methyl)benzonitrile]"
8,20.1 to 200 nM,"O=C1N(Cc2cccc(OCC3CC3)c2)CCN1c1ccc(-c2cn[nH]c2)cn1 [Example 438, 1-(5-(1H-pyrazol-4-yl)pyridin-2-yl)-3-(3-(cyclopropylmethoxy)benzyl)imidazolidin-2-one]"
9,20.1 to 200 nM,"CCc1nc(N2CCN(Cc3cccc(OCC4CC4)c3)C2=O)ccc1-c1cn[nH]c1 [Example 169, 1-(3-(cyclo-propyl-methoxy)-benzyl)-3-(6-ethyl-5-(1H-pyrazol-4-yl)pyridin-2-yl)-imidazolidin-2-one]"
10,2.1 to 20 nM,"COc1nc(N2CCN(Cc3cccc(OC(F)F)c3)C2=O)ccc1-c1cn[nH]c1 [Example 233, 1-(3-(difluoromethoxy)benzyl)-3-(6-methoxy-5-(1H-pyrazol-4-yl)pyridin-2-yl)imidazolidin-2-one]"
11,20.1 to 200 nM,"COc1cc(F)cc(CN2CCN(c3ccc(-c4cn[nH]c4)c(C#N)c3)C2=O)c1 [Example 278, 5-(3-(3-fluoro-5-methoxybenzyl)-2-oxoimidazolidin-1-yl)-2-(1H-pyrazol-4-yl)benzonitrile]"
12,20.1 to 200 nM,"COc1cc(C(C)N2CCN(c3ccc(-c4cn[nH]c4)c(OC)n3)C2=O)ccc1F (single isomer, unassigned) [Example 231, 1-(1-(4-fluoro-3-methoxyphenyl)ethyl)-3-(6-methoxy-5-(1H-pyrazol-4-yl)pyridin-2-yl)imidazolidin-2-one]"
13,200 to 2000 nM,"COc1cccc(CN2CCN(c3ccc(-c4cn[nH]c4)c(C#N)c3)C2=O)c1 [Example 277, 5-(3-(3-methoxybenzyl)-2-oxoimidazolidin-1-yl)-2-(1H-pyrazol-4-yl)benzonitrile]"
14,< 2 nM,"COc1cc(F)cc(C(C)N2CCN(c3ccc(-c4cn[nH]c4)c(C)n3)C2=O)c1 (single isomer, unassigned) [Example 206, 1-(1-(3-fluoro-5-methoxy-phenyl)-ethyl)-3-(6-methyl-5-(1H-pyrazol-4-yl)pyridin-2-yl)-imidazolidin-2-one]"
15,2.1 to 20 nM,"CC(c1ccccc1)n1ccn(-c2ccc(-c3cn[nH]c3)cc2)c1=O (centres unmarked) [Example 331, 1-(4-(1H-pyrazol-4-yl)phenyl)-3-(1-phenylethyl)-1H-imidazol-2(3H)-one]"
16,20.1 to 200 nM,"COc1c(F)cccc1CN1CCN(c2ccc(-c3cn[nH]c3)cc2)C1=O [Example 264, 1-(4-(1H-pyrazol-4-yl)phenyl)-3-(3-fluoro-2-methoxybenzyl)imidazolidin-2-one]"
17,2.1 to 20 nM,"COc1cccc(CN2C(=O)N(c3ccc(-c4cn[nH]c4)cn3)C[C@@H]2CO)c1 [Example 474, (R)-1-(5-(1H-pyrazol-4-yl)pyridin-2-yl)-4-(hydroxymethyl)-3-(3-methoxybenzyl)imidazolidin-2-one]"
18,200 to 2000 nM,"COc1cccc(C(C(=O)NCC2CC2)N2CCN(c3ccc(-c4cn[nH]c4)cc3)C2=O)c1 (single isomer, unassigned) [Example 297, 2-(3-(4-(1H-pyrazol-4-yl)phenyl)-2-oxoimidazolidin-1-yl)-N-(cyclopropylmethyl)-2-(3-methoxyphenyl)acetamide]"
19,< 2 nM,"COc1cccc(C(C)n2ccn(-c3ccc(-c4cn[nH]c4)cc3)c2=O)c1 (single isomer, unassigned) [Example 339, 1-(4-(1H-pyrazol-4-yl)phenyl)-3-(1-(3-methoxyphenyl)ethyl)-1H-imidazol-2(3H)-one]"
20,20.1 to 200 nM,"Cc1ccc(F)cc1Cn1ccn(-c2ccc(-c3cn[nH]c3)cc2)c1=O [Example 404, 1-(4-(1H-pyrazol-4-yl)phenyl)-3-(5-fluoro-2-methylbenzyl)-1H-imidazol-2(3H)-one]"
